According to patent US7312179B2, “Cyclopropyl-thienyl-carboxamide as fungicides” (Syngenta Crop Protection, Inc., priority 2002, dated 2007):

melting point: 76 to 79 °C
Structure (SMILES): Cn1cc(C(=O)Nc2ccsc2C2CC2C2CC2)c(C(F)F)n1 (stereo not shown) [Compound 4.34, 3-difluoromethyl-1-methyl-1H-pyrazole-4-carboxylic acid (2-bicyclo-propyl-2-yl-thiophen-3-yl)amide]
